According to ChEMBL document CHEMBL1126223, “Adenosine deaminase inhibitors. Synthesis and biological evaluation of C1' and nor-C1' derivatives of (+)-erythro-9-(2(S)-hydroxy-3(R)-nonyl)adenine” (J Med Chem, 1992):

biological target: T1, Adenosine deaminase (Bos taurus, UniProt P56658); assay: Binding affinity (Ki) at calf intestinal Adenosine deaminase
T1 sequence (P56658 whole entry): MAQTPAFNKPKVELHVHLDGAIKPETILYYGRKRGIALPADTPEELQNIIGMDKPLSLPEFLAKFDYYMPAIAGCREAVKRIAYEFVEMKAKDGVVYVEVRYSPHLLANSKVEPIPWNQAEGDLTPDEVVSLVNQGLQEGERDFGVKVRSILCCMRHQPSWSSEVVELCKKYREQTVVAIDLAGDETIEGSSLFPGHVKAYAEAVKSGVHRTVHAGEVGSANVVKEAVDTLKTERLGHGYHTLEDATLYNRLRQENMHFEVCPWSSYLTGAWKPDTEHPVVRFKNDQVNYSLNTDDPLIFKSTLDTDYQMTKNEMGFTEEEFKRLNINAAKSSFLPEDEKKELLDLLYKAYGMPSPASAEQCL

Ki | Compound
56 nM | CCCCCC[C@H]([C@@H](O)CO)n1cnc2c(N)ncnc21
1600 nM | CCCCCC[C@H](CF)n1cnc2c(N)ncnc21
2 nM | CCCCCC[C@H]([C@H](C)O)n1cnc2c(N)ncnc21 [(+)-EHNA]

Compound | Ki
CCCCCC[C@H]([C@@H]1CO1)n1cnc2c(N)ncnc21 | 890 nM
CCCCCC[C@H](CO)n1cnc2c(N)ncnc21 | 47 nM

biological target: T1, Adenosine deaminase; assay: Binding affinity (Ki) at calf intestinal adenosine deaminase.

Ki | Compound
320 nM | CCCCCC[C@H](CCl)n1cnc2c(N)ncnc21
600 nM | CCCCCC[C@H](CBr)n1cnc2c(N)ncnc21
1000 nM | CCCCCC[C@@H]1[C@@H](O)C[n+]2cnc(N)c3ncn1c32
1300 nM | CCCCCC[C@H](CN=[N+]=[N-])n1cnc2c(N)ncnc21
4 nM | CCCCCC[C@@H]([C@@H](C)O)n1cnc2c(N)ncnc21 [EHNA]
